Paper PMC7397249, “Properly Substituted Cyclic Bis-(2-bromobenzylidene) Compounds Behaved as Dual p300/CARM1 Inhibitors and Induced Apoptosis in Cancer Cells” (Molecules, 2020)

Columns and labels:
Assay type in all cases: biochemical
p300 = target: T1, p300 (Homo sapiens, UniProt Q09472); assay: HotSpot HAT activity assay, p300; conditions: 10-dose, triplicate, from 200 μM; histone H3, [acetyl-3H]-acetyl-CoA
T1 construct: p300 (aa 1284–1673, 30 nM); purchased Reaction Biology Corporation
T1 sequence (Q09472 1284-1673): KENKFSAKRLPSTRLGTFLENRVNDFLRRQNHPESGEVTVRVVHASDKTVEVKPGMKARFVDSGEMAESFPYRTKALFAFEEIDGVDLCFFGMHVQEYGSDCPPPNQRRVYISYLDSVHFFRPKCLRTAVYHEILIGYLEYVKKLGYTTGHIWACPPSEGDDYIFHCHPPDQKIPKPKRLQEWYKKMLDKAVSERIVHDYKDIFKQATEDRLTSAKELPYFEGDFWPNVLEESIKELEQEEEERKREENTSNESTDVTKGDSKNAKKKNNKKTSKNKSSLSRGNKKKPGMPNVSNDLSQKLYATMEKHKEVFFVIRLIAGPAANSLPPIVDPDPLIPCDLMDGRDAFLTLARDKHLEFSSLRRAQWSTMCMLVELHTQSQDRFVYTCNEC
Procedure: (§1) The newly synthesized compounds 4a–n were tested to determine their effects against acetylation and methylation epigenetic targets. First, 4a–n were screened in vitro against the two HAT enzymes p300 and PCAF. […] To determine the activity against SIRT1 and -2, 4a–n were tested starting from 200 μM solutions using a modified Fluor de Lys fluorescence-based assay with amino acids 379–382 (Arg-His-Lys-Lys(Ac)) of human p53 conjugated with aminomethylcoumarin as substrate and NAD^+ as co-substrate. […] Furthermore, 4a–n were tested against a human five-membered Polycomb repressive complex 2 (PRC2) containing EZH2, embryonic ectoderm development (EED), suppressor of zeste 12 (SUZ12), RbAp48, and adipocyte enhancer-binding protein (AEBP2), to assess their capability to inhibit the catalytic unit EZH2.
(§2) The effect of tested derivatives on the catalytic activity of p300 and PCAF was determined in a HotSpot HAT activity assay by Reaction Biology Corporation (Malvern, PA, USA) according to the company’s standard operating procedure. In brief, the recombinant catalytic domains of PCAF (aa 492–658, 250 nM) or p300 (aa 1284–1673, 30 nM) were incubated with histone H3 as substrate (5 µM) and [Acetyl-^3H]-Acetyl Coenzyme A (3 µM) as an acetyl donor in reaction buffer (50 mM Tris-HCl (pH 8.0), 50 mM NaCl, 0.1 mM EDTA, 1 mM DTT, 1 mM PMSF, 1% DMSO) for 1 h at 30 °C in the presence or absence of a dose titration of the compounds. The reaction mixture was delivered to filter-paper for detection. IC50 values were analyzed using Excel and GraphPad Prism 6.0 software (GraphPad Software Inc., San Diego, CA, USA). The experiments for p300 were performed in triplicate.

PCAF = target: T2, PCAF (Homo sapiens, UniProt Q92831); assay: HotSpot HAT activity assay, PCAF; conditions: 10-dose, from 200 μM; histone H3, [acetyl-3H]-acetyl-CoA
T2 construct: PCAF (aa 492–658, 250 nM); purchased Reaction Biology Corporation
T2 sequence (Q92831 492-658): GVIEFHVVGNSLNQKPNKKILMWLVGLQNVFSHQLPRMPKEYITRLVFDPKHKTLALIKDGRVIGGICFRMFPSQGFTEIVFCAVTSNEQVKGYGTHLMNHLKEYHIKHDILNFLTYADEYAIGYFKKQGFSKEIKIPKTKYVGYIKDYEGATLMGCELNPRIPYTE
Procedure: as §1, §2

SIRT2 = target: T3, SIRT2 (Homo sapiens, UniProt Q8IXJ6); assay: Modified Fluor de Lys fluorescence-based assay, SIRT2; conditions: from 200 μM; p53 379-382 AMC substrate, NAD+
T3 construct: host or cells: E. coli
T3 sequence (Q8IXJ6 whole entry): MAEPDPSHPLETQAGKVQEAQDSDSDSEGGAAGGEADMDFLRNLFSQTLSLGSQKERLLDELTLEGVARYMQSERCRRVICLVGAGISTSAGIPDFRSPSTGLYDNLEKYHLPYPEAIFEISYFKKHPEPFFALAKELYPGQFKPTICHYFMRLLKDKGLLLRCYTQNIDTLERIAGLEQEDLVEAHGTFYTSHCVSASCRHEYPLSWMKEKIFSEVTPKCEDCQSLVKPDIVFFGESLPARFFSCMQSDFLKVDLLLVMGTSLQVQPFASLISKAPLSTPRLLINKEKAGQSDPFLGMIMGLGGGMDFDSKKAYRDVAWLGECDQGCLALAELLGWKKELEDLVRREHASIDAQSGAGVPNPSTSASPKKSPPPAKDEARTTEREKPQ
Procedure: as §1
The SIRT inhibition assay was performed using human recombinant SIRT1 and SIRT2 produced in E. coli. Compounds were tested using a modified Fluor de Lys fluorescence-based assay kit based on the method described in the BioMol product sheet (AK-555, AK-556, Milan, Italy). […] The second stage is initiated by the addition of the Developer II (KI176), including nicotinamide (NAM), nicotinamide that stops the SIRT1/2 activity, and the fluorescent signal is produced. The fluorescence was measured on a fluorometric reader (Infinite 200 TECAN, Männedorf, Switzerland) with excitation set at 360 nm and emission detection set at 460 nm.

PRC2/EZH2 = PRC2/EZH2 (Homo sapiens, UniProt Q15910); assay: EZH2/PRC2 assay (core histone, 3H-SAM); conditions: 10-dose, duplicate, from 400 μM
PRC2/EZH2, sequence (Q15022 whole entry): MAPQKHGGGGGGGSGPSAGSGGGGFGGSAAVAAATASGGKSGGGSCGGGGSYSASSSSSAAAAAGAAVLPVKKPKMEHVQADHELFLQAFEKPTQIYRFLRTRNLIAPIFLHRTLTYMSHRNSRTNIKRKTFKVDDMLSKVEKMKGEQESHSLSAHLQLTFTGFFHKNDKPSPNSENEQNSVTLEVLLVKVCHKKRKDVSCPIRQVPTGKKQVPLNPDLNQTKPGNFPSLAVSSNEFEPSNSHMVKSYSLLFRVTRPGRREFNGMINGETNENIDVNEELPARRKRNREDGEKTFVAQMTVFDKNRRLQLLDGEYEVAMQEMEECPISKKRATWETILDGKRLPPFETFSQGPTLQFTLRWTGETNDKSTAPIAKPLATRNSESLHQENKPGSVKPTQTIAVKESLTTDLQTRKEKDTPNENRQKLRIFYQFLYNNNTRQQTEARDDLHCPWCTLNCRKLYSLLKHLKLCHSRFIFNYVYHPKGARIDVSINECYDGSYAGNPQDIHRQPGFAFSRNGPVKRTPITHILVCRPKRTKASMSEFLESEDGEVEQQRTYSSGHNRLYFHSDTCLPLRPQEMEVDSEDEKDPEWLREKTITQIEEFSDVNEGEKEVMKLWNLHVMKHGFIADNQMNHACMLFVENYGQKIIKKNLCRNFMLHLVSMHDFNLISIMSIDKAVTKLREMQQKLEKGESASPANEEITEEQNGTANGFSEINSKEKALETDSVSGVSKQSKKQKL
PRC2/EZH2, sequence (Q09028 whole entry, further chain): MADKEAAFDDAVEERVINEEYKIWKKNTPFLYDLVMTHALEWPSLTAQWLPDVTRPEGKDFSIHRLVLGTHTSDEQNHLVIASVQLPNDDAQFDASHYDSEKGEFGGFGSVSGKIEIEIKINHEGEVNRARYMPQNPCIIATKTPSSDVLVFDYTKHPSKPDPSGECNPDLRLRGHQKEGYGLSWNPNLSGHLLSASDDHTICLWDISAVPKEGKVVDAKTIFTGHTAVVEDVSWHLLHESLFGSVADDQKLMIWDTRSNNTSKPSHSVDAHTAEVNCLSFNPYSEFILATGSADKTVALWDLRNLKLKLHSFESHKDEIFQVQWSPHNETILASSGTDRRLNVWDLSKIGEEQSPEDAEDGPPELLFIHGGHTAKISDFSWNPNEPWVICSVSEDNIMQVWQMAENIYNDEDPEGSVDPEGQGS
PRC2/EZH2, sequence (Q6ZN18 whole entry, further chain): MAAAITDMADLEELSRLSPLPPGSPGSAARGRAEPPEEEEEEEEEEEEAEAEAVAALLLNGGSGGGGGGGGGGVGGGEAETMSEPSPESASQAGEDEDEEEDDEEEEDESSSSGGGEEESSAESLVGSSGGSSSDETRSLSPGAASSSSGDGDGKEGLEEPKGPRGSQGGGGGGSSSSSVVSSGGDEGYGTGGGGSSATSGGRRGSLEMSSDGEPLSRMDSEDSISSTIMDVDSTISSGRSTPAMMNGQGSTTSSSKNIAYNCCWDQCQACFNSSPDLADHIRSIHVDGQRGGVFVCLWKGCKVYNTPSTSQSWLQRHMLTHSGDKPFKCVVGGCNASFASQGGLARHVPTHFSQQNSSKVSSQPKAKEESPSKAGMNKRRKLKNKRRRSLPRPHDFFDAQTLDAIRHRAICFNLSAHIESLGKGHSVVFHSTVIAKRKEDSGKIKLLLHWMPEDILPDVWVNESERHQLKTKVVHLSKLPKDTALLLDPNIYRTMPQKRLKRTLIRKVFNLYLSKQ
PRC2/EZH2, sequence (Q15910 whole entry): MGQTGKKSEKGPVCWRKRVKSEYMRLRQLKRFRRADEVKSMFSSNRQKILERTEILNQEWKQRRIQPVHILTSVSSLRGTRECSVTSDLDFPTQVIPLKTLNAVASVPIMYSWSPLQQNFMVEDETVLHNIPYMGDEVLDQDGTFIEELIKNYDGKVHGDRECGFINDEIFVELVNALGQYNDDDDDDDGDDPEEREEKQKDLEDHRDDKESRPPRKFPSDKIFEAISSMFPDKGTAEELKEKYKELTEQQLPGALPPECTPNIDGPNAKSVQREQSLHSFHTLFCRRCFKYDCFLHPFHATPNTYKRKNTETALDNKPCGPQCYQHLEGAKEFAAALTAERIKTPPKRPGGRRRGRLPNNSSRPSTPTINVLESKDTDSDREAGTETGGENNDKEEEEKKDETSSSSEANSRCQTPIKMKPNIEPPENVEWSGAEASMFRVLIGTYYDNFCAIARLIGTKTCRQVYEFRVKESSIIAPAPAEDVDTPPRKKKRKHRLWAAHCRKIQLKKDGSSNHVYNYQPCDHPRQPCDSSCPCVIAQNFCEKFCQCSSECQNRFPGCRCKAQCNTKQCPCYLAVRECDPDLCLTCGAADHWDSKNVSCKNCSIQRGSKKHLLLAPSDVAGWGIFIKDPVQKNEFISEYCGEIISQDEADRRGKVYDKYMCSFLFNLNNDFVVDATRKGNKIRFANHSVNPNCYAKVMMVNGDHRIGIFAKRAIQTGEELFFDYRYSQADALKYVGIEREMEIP
PRC2/EZH2, sequence (O75530 whole entry, further chain): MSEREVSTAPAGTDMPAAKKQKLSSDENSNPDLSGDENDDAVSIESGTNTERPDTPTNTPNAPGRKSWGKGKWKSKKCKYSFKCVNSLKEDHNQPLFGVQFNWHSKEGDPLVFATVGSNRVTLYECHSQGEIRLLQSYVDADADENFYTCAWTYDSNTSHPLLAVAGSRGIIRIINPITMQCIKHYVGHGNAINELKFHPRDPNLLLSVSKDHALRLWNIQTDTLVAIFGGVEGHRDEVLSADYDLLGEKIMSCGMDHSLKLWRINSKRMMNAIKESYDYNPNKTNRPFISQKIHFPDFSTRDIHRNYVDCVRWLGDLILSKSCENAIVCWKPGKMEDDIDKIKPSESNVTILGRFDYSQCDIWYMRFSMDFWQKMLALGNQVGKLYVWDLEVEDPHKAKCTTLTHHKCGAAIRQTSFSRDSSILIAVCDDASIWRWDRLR
Procedure: as §1
The EZH2 substrate (0.05 mg/mL core histone) was added in the freshly prepared reaction buffer (50 mM Tris-HCl (pH 8.0), 50 mM NaCl, 1 mM EDTA, 1 mM DTT, 1 mM PMSF, 1% DMSO). The PRC2 complex (complex of human EZH2, human EED, human SUZ12, human AEBP2, and human RbAp48) was delivered into the substrate solution and the mixture was mixed gently. Afterwards, the tested compounds dissolved in DMSO were delivered into the enzyme/substrate reaction mixture by using Acoustic Technology (Echo 550, LabCyte Inc. Sunnyvale, CA, USA) in nanoliter range, and ^3H-SAM was added into the reaction mixture to initiate the reaction. The reaction mixture was incubated for 1 h at 30 °C and then it was delivered to filter-paper for detection. The data were analyzed using Excel and GraphPad Prism software for IC50 curve fits. The experiments were performed in duplicate.

| SMILES | IC50 (p300) | IC50 (PCAF) | IC50 (SIRT2) | IC50 (PRC2/EZH2) |
| --- | --- | --- | --- | --- |
| O=C1/C(=C/c2ccccc2Br)CN(C(=O)C=Cc2ccccc2)C/C1=C\c1ccccc1Br [Compound 4n, 3,5-Bis((E)-2-bromobenzylidene)-1-cinnamoylpiperidin-4-one] | 1.23 ± 0.29 µM | > 200 µM | > 200 µM | 13.9 ± 1.8 µM |
| O=C1/C(=C/c2ccccc2Br)CN(C(=O)CCc2ccccc2)C/C1=C\c1ccccc1Br [Compound 4m, 3,5-Bis((E)-2-bromobenzylidene)-1-(3-phenylpropanoyl)piperidin-4-one] | 0.46 ± 0.1 µM | > 200 µM | > 200 µM | 11.3 ± 0.08 µM |
| O=C1/C(=C/c2ccccc2Br)CN(C(=O)Cc2ccccc2)C/C1=C\c1ccccc1Br [Compound 4l, 3,5-Bis((E)-2-bromobenzylidene)-1-(2-phenylacetyl)piperidin-4-one] | 0.45 ± 0.03 µM | > 200 µM | > 200 µM | 15.2 ± 2.2 µM |
| O=C1/C(=C/c2ccccc2Br)CN(CCc2ccccc2)C/C1=C\c1ccccc1Br [Compound 4f, 3,5-Bis((E)-2-bromobenzylidene)-1-phenethylpiperidin-4-one] | 30.2 ± 2.71 µM | > 200 µM | > 200 µM |  |
| O=C1/C(=C/c2ccccc2Br)CN(Cc2ccccc2)C/C1=C\c1ccccc1Br [Compound 4e, 1-benzyl-3,5-bis((E)-2-bromobenzylidene)piperidin-4-one] | 2.19 ± 0.77 µM | > 200 µM | > 200 µM | 44.2 ± 0.2 µM |
| O=C1/C(=C/c2ccccc2Br)CN(CCCc2ccccc2)C/C1=C\c1ccccc1Br [Compound 4g, 3,5-Bis((E)-2-bromobenzylidene)-1-(3-phenylpropyl)piperidin-4-one] | 40.7 ± 2.39 µM | > 200 µM | > 200 µM |  |
| O=C1/C(=C/c2ccccc2Br)CN(CC(=O)c2ccccc2)C/C1=C\c1ccccc1Br [Compound 4h, 3,5-Bis((E)-2-bromobenzylidene)-1-(2-oxo-2-phenylethyl)piperidin-4-one] | 1.03 ± 0.22 µM | > 200 µM | > 200 µM | 46 ± 8.1 µM |
| O=C1/C(=C/c2ccccc2Br)CN(C(=O)c2ccccc2)C/C1=C\c1ccccc1Br [Compound 4k, 1-Benzoyl-3,5-bis((E)-2-bromobenzylidene)piperidin-4-one] | 2.09 ± 0.79 µM | > 200 µM | > 200 µM | 40.7 ± 15.3 µM |
| O=C1/C(=C/c2ccccc2Br)CN(CCCC(=O)c2ccccc2)C/C1=C\c1ccccc1Br [Compound 4j, 3,5-Bis((E)-2-bromobenzylidene)-1-(4-oxo-4-phenylbutyl)piperidin-4-one] | 2.13 ± 1.35 µM | > 200 µM | > 200 µM | 68.5 ± 6.2 µM |
